Reference: US20190062371A1, “PEPTIDE COMPOSITIONS AND RELATED METHODS” (Allegro Pharmaceuticals, Inc., priority 2017, published 2019)

Tested on: ischemia-induced retinal neovascularization
Assay: Mouse model of retinopathy of prematurity (ROP), ischemia-induced retinal neovascularization
Format: in vivo, C57Bl/6 mice
Conditions: for Activity At Dose Tested: intravitreal 20 micrograms, P17; for Mean % Reduction of Retinal Neovascularization In ROP Model: intravitreal injection of 1.0 microliters containing 20 micrograms of Test Compound at P12, neovascular area at P17 (Taurine solutions 3.0 mg/100 μL)
Procedure: Each test compound was prepared in sterile water for injection, containing 0.08 mg/100 μL of sodium chloride and 0.005 mg/100 μL of trisodium citrate, the concentration of the peptide was at a concentration of […] and pH=2.7 and dispensed by sterile filtration into sterile vials. The Taurine test compound was obtained from Sigma Aldrich company, which was >99% pure, and prepared the same way as mentioned previously, having a concentration of 3.0 mg/100 μL. The R-G-Cys(acid) at 2.0 mg/100 μL+Taurine at 3.0 mg/100 μL were prepared the same way as mentioned above
To screen the test compounds for activity against ischemia-induced retinal neovascularization, the well-established model of retinopathy of prematurity (ROP) in mice was used. Litters of C57Bl/6 mice were placed in 75% oxygen at postnatal day (P) 7, returned to room air at day (P) 12. The Pups were randomly assigned to treatment groups of 4 to 10 animals per group. The pups were treated as follows: Treatment eyes were treated by intravitreal injection of 1.0 microliters of solution containing 20 micrograms of Test Compound.
On post-natal day 17, 5 days after intravitreal injection, the animals were sacrificed, the retinas were flat mounted and the area of neovascularization in each retina was determined by Fluorescein-dextran image analysis.
Applicant has identified the tripeptide R-G-Cysteic(Acid) as an integrin binding motif of the oligopeptide Glycinyl-Arginyl-Glycinyl-Cysteic(Acid)-Threonyl-Proline (ALG-1001 or Luminate®, Allegro Ophthalmics, LLC). The trifluoroacetate (TFA) and acetate salts of the R-G-Cysteic(Acid) tripeptide (Test Compound Nos. 1 and 2) were tested in both the ROP Mouse Model as described above as well as in a mouse model of choroidal neovascularization induced by laser photocoagulation (“CNV Mouse Model”), as generally as described in Lambert, V., et al., Laser-Induced Choroidal Neovascarization Model to Study Age Related Macular Degeneration in Mice, Nature Protocols, 8; 2197-2211 (2013). […] In some of the experiments, an additional “Positive Control” group was included.
The following Table 1 summarizes the neovascularization inhibiting effect of each Test Compound at the dose tested. In each instance, the data was obtained using the ROP Mouse Model, except for the two table entries specifically labeled “CNV”. Only those table entries labeled “CNV” show data obtained from the CNV Mouse Model. Bar graphs showing the test results summarized in Table 1 are also provided herewith as FIGS. 1 through 27.

| Compound | Activity At Dose Tested | Mean % Reduction of Retinal Neovascularization In ROP Model [%] |
| --- | --- | --- |
| R-A-Cys (acid)•TFA [Test Compound 3] | Active | 60 |
| Cyclo-{R-G-Cys(acid)-F—N—Me—V} Acetate [Test Compound 12] | Active | 57 |
| Cyclo-{R-G-D-D-F—NMe—V}•TFA [Test Compound 13] | Active | 75 |
| R-G-Cys(acid)-G-G-GD-G•TFA [Test Compound 7] | Active | 62 |
| NCCS(=O)(=O)O [Test Compound 25, Taurine, reference compound] | Slightly Active | 33 |
| R-D-G•TFA [Test Compound 18] | Active | 44 |
